{"source": "ChEMBL document CHEMBL3853272", "about": "“Polymerase Acidic Protein-Basic Protein 1 (PA-PB1) Protein-Protein Interaction as a Target for Next-Generation Anti-influenza Therapeutics” (J Med Chem, 2016)", "key": {"[1]": {"molecular_target": "Polymerase acidic protein /RNA-directed RNA polymerase catalytic subunit (Influenza A virus (strain A/Wilson-Smith/1933 H1N1), UniProt P03430+P15659)", "experiment": "Inhibition of Influenza A virus A/WSN/1933(H1N1) HA-tagged PA/PB1 interaction in HEK293T cells assessed as inhibition of viral growth by competitive ELISA", "type": "cell-based, HEK-293T"}, "[2]": {"experiment": "Inhibition of Influenza A virus A/WSN/1933(H1N1) PA/PB1 interaction transfected in HEK293T cells assessed as inhibition of viral growth measured after 24 hrs by minireplicon assay", "type": "cell-based", "details": "hek-293t"}, "[3]": {"experiment": "Cytotoxicity against MDCK cells measured after 24 to 120 hrs by MTT assay", "type": "toxicity, cell-based, Canis lupus familiaris", "details": "dog"}, "[4]": {"experiment": "Inhibition of Influenza A virus A/PR/8/34(H1N1) 6His-tagged PA (239 to 716 residues)/GST-tagged PB1 (1 to 15 residues) interaction", "design": "species or system Influenza A virus (A/Puerto Rico/8/1934(H1N1))"}, "[5]": {"experiment": "Inhibition of Influenza A virus A/PR/8/34(H1N1) RNA-dependent-RNA polymerase transfected in MDCK cells assessed as reduction in viral growth after 24 hrs by minireplicon assay", "type": "cell-based, Influenza A virus (A/Puerto Rico/8/1934(H1N1))"}, "[6]": {"experiment": "Inhibition of Influenza B virus B/Lee/40 RNA-dependent-RNA polymerase transfected in MDCK cells assessed as reduction in viral growth after 24 hrs by minireplicon assay", "type": "cell-based, Influenza B virus (B/Lee/1940)"}, "Influenza A virus": {"system": "Influenza A virus", "experiment": "Antiviral activity at Influenza A virus infected in MDCK cells by plaque reduction assay", "type": "functional, cell-based"}, "[7]": {"experiment": "(§1) Inhibition of Influenza A virus A/PR/8/34(H1N1) 6His-tagged PA (239 to 716 residues)/GST-tagged PB1 (1 to 15 residues) fused with HIV-Tat interaction by ELISA", "design": "species or system Influenza A virus (A/Puerto Rico/8/1934(H1N1))"}, "[8]": {"system": "Influenza A virus (A/Puerto Rico/8/1934(H1N1))", "experiment": "as §1"}, "[9]": {"experiment": "Antiviral activity against Influenza A virus A/PR/8/34 (H1N1) infected in MDCK cells assessed as reduction in plaque formation after 2 days by plaque reduction assay", "type": "functional, cell-based, Influenza A virus (A/Puerto Rico/8/1934(H1N1))", "details": "48 h"}, "[10]": {"experiment": "(§2) Inhibition of Influenza A virus A/PR/8/34 RNA-dependent-RNA polymerase transfected in HEK293T cells assessed as reduction in viral growth after 24 hrs by minireplicon assay", "type": "cell-based, Influenza A virus (A/Puerto Rico/8/1934(H1N1))", "details": "hek-293t"}, "HEK-293T": {"system": "HEK-293T", "experiment": "as §2", "type": "cell-based", "details": "Influenza A virus (A/Puerto Rico/8/1934(H1N1))"}, "Influenza B virus": {"system": "Influenza B virus", "experiment": "Antiviral activity at Influenza B virus infected in MDCK cells by plaque reduction assay", "type": "functional, cell-based"}, "[11]": {"molecular_target": "Polymerase acidic protein (Influenza A virus (A/Puerto Rico/8/1934(H1N1)), UniProt P03433)", "experiment": "Binding affinity to PA cavity of recombinant Influenza A virus A/PR/8/34(H1N1) PA (239 to 716 residues) measured after 2 mins by SPR analysis"}, "[12]": {"experiment": "Inhibition of Influenza B virus HA-tagged PA/PB1 interaction in HEK293T cells assessed as inhibition of viral growth by competitive ELISA", "type": "cell-based", "details": "hek-293t"}, "[13]": {"experiment": "Cytotoxicity against MDCK cells by MTT assay", "type": "toxicity, cell-based, Canis lupus familiaris", "details": "dog"}}}
{"compound": "CSCC[C@H](N)C(=O)N[C@@H](CC(=O)O)C(=O)N[C@H](C(=O)N[C@@H](CC(N)=O)C(=O)N1CCC[C@H]1C(=O)N[C@@H](Cc1ccccc1)C(=O)N[C@@H](CC(C)C)C(=O)N[C@@H](CC(C)C)C(=O)N[C@@H](Cc1ccccc1)C(=O)N[C@@H](CC(C)C)C(=O)N[C@@H](CCCCN)C(=O)N[C@H](C(=O)N[C@@H](CCCCN)C(=O)N[C@@H](C)C(=O)N[C@@H](CCC(N)=O)C(=O)O)C(C)C)C(C)C", "values": [{"measurement": "IC50", "setting": "[1]", "result": 0.0166, "unit": "µM"}]}
{"compound": "Nc1ccc(O)c2c1C(=O)c1c(N)ccc(O)c1C2=O", "values": [{"measurement": "IC50", "setting": "[2]", "result": 16, "unit": "µM"}, {"measurement": "CC50", "setting": "[3]", "result": "> 250", "unit": "µM"}, {"measurement": "IC50", "setting": "[4]", "result": 20, "unit": "µM"}, {"measurement": "EC50", "setting": "[5]", "result": 14, "unit": "µM"}, {"measurement": "EC50", "setting": "[6]", "result": 8.3, "unit": "µM"}, {"measurement": "EC50", "setting": "Influenza A virus", "result": 13, "unit": "µM"}]}
{"compound": "COc1ccc(C(=O)Nc2nc3n(n2)C(c2ccccc2)C=C(C)N3)cc1", "note": "(centres undefined)", "values": [{"measurement": "IC50", "setting": "[7]", "result": 171, "unit": "µM"}, {"measurement": "inhibition", "setting": "[8]", "result": "Dose-dependent effect"}, {"measurement": "CC50", "setting": "[3]", "result": "> 250", "unit": "µM"}, {"measurement": "EC50", "setting": "[9]", "result": "> 100", "unit": "µM"}, {"measurement": "IC50", "setting": "[10]", "result": "> 100", "unit": "µM"}, {"measurement": "inhibition", "setting": "HEK-293T", "result": "Dose-dependent effect"}]}
{"compound": "COC(=O)C1=C(N)N(c2cccc(Cl)c2C)C2=C(C(=O)CCC2)C1c1ccc2c(c1)OCO2", "note": "(centres undefined)", "values": [{"measurement": "IC50", "setting": "[7]", "result": 30.4, "unit": "µM"}, {"measurement": "inhibition", "setting": "[8]", "result": "Dose-dependent effect"}, {"measurement": "CC50", "setting": "[3]", "result": "> 1000", "unit": "µM"}, {"measurement": "EC50", "setting": "[9]", "result": 18.6, "unit": "µM"}, {"measurement": "IC50", "setting": "[10]", "result": 18, "unit": "µM"}, {"measurement": "inhibition", "setting": "HEK-293T", "result": "Dose-dependent effect"}, {"measurement": "EC50", "setting": "Influenza A virus", "result": 12, "unit": "µM"}, {"measurement": "EC50", "setting": "Influenza B virus", "result": 12, "unit": "µM"}]}
{"compound": "CSCC[C@H](N)C(=O)N[C@@H](CC(=O)O)C(=O)N[C@H](C(=O)N[C@@H](CC(N)=O)C(=O)N1CCC[C@H]1C(=O)N[C@@H](Cc1ccccc1)C(=O)N[C@@H](CC(C)C)C(=O)N[C@@H](CC(C)C)C(=O)N[C@@H](Cc1ccccc1)C(=O)N[C@@H](CC(C)C)C(=O)N[C@@H](CCCCN)C(=O)N[C@H](C(=O)N1CCC[C@H]1C(=O)N[C@@H](C)C(=O)N[C@@H](Cc1ccccc1)C(=O)O)C(C)C)C(C)C", "values": [{"measurement": "IC50", "setting": "[1]", "result": 0.0139, "unit": "µM"}]}
{"compound": "COc1ccc(CC2(CCC(=O)NC(C)Cn3ccc4ccccc43)CCC(=O)N2)cc1", "note": "(centres undefined)", "values": [{"measurement": "IC50", "setting": "[7]", "result": 200, "unit": "µM"}, {"measurement": "inhibition", "setting": "[8]", "result": "Dose-dependent effect"}, {"measurement": "CC50", "setting": "[3]", "result": "> 250", "unit": "µM"}, {"measurement": "EC50", "setting": "[9]", "result": "> 100", "unit": "µM"}, {"measurement": "IC50", "setting": "[10]", "result": "> 100", "unit": "µM"}, {"measurement": "inhibition", "setting": "HEK-293T", "result": "Dose-dependent effect"}]}
{"compound": "N#CC(c1ccc(Cl)cc1)c1c(Cl)cc(-n2ncc(=O)[nH]c2=O)cc1Cl", "note": "(centres undefined) [DICLAZURIL]", "values": [{"measurement": "Kd", "setting": "[11]", "result": 211, "unit": "µM"}, {"measurement": "EC50", "setting": "[9]", "result": 31, "unit": "µM"}]}
{"compound": "NC(=O)c1c(NC(=O)c2cnn3c(C(F)F)cc(-c4ccccc4)nc23)sc2c1CCC2", "values": [{"measurement": "IC50", "setting": "[7]", "result": 25.4, "unit": "µM"}, {"measurement": "inhibition", "setting": "[8]", "result": "Dose-dependent effect"}, {"measurement": "CC50", "setting": "[3]", "result": "> 1000", "unit": "µM"}, {"measurement": "EC50", "setting": "[9]", "result": 75, "unit": "µM"}, {"measurement": "IC50", "setting": "[10]", "result": 31, "unit": "µM"}, {"measurement": "inhibition", "setting": "HEK-293T", "result": "Dose-dependent effect"}]}
{"compound": "CCc1oc2ccccc2c1C(=O)c1cc(Br)c(O)c(Br)c1", "note": "[BENZBROMARONE]", "values": [{"measurement": "Kd", "setting": "[11]", "result": 48.2, "unit": "µM"}, {"measurement": "EC50", "setting": "[9]", "result": 39, "unit": "µM"}]}
{"compound": "H-MNINPYFLFIDVPIQ-OH", "values": [{"measurement": "IC50", "setting": "[1]", "result": "> 3", "unit": "µM"}, {"measurement": "IC50", "setting": "[12]", "result": 0.045, "unit": "µM"}]}
{"compound": "CC(=O)O[C@H]1CC[C@H]2[C@@H]3CCC4=CC(=O)CCC4=C3C=C[C@]12C", "note": "[TRENBOLONE ACETATE]", "values": [{"measurement": "Kd", "setting": "[11]", "result": 90.7, "unit": "µM"}, {"measurement": "EC50", "setting": "[9]", "result": 51, "unit": "µM"}]}
{"compound": "CSCC[C@H](N)C(=O)N[C@@H](CC(=O)O)C(=O)N[C@H](C(=O)N[C@@H](CC(N)=O)C(=O)N1CCC[C@H]1C(=O)N[C@H](C(=O)N[C@@H](CC(C)C)C(=O)N[C@@H](CC(C)C)C(=O)N[C@@H](Cc1ccccc1)C(=O)N[C@@H](CC(C)C)C(=O)N[C@@H](CCCCN)C(=O)N[C@H](C(=O)N1CCC[C@H]1C(=O)N[C@@H](C)C(=O)N[C@@H](CCC(N)=O)C(=O)O)C(C)C)[C@@H](C)O)C(C)C", "values": [{"measurement": "IC50", "setting": "[12]", "result": "> 3", "unit": "µM"}]}
{"compound": "O=[N+]([O-])c1ccc(Oc2ccc(-n3cc(CO)nn3)cc2)c2nonc12", "values": [{"measurement": "CC50", "setting": "[13]", "result": 40, "unit": "µM"}, {"measurement": "IC50", "setting": "[7]", "result": 35, "unit": "µM"}, {"measurement": "EC50", "setting": "[9]", "result": 1, "unit": "µM"}]}
{"compound": "CC[C@H](C)[C@H](NC(=O)[C@@H]1CCCN1C(=O)[C@@H](NC(=O)[C@H](CCCCN)NC(=O)[C@H](CC(C)C)NC(=O)[C@H](Cc1ccccc1)NC(=O)[C@H](CC(C)C)NC(=O)[C@H](CC(C)C)NC(=O)[C@H](Cc1ccccc1)NC(=O)[C@@H]1CCCN1C(=O)[C@H](CC(N)=O)NC(=O)[C@@H](NC(=O)[C@H](CC(=O)O)NC(=O)[C@@H](N)CCSC)C(C)C)C(C)C)C(=O)N[C@@H](CCC(N)=O)C(=O)O", "values": [{"measurement": "IC50", "setting": "[1]", "result": 0.0217, "unit": "µM"}]}
{"compound": "CC(C)C[C@H](NC(=O)[C@H](Cc1ccccc1)NC(=O)[C@H](CC(C)C)NC(=O)[C@H](CC(C)C)NC(=O)[C@@H](NC(=O)[C@@H]1CCCN1)[C@@H](C)O)C(=O)N[C@@H](CCCCN)C(=O)O", "values": [{"measurement": "IC50", "setting": "[1]", "result": "> 10", "unit": "µM"}]}
{"compound": "O=[N+]([O-])c1ccc(Sc2cccc(-n3ccnc3)c2)c2nonc12", "values": [{"measurement": "CC50", "setting": "[13]", "result": 20, "unit": "µM"}, {"measurement": "IC50", "setting": "[7]", "result": 15, "unit": "µM"}, {"measurement": "EC50", "setting": "[9]", "result": 10, "unit": "µM"}]}
{"compound": "H-MDVNPYLLFLKVPAQ-OH", "values": [{"measurement": "IC50", "setting": "[1]", "result": 0.0216, "unit": "µM"}, {"measurement": "IC50", "setting": "[12]", "result": 0.107, "unit": "µM"}]}
{"compound": "CSCC[C@H](N)C(=O)N[C@@H](CC(=O)O)C(=O)N[C@@H](Cc1ccc(O)cc1)C(=O)N[C@@H](CC(N)=O)C(=O)N1CCC[C@H]1C(=O)N[C@@H](Cc1ccccc1)C(=O)N[C@@H](CC(C)C)C(=O)N[C@@H](CC(C)C)C(=O)N[C@@H](Cc1ccccc1)C(=O)N[C@@H](CC(C)C)C(=O)N[C@@H](CCCCN)C(=O)N[C@H](C(=O)N1CCC[C@H]1C(=O)N[C@@H](C)C(=O)N[C@@H](CCC(N)=O)C(=O)O)C(C)C", "values": [{"measurement": "IC50", "setting": "[1]", "result": 0.0063, "unit": "µM"}]}
